Data published in ChEMBL document CHEMBL1156829 (Proc Natl Acad Sci U S A, 2008).

Columns and labels:
[1] = NOVARTIS: Cytotoxicity against human hepatocellular carcinoma cell line (Huh7); type: toxicity, cell-based, Huh-7; settings: Huh7 cells (hepatocellular carcinoma cell line)
[2] = tested on: Plasmodium falciparum; assay: NOVARTIS: Inhibition of Plasmodium falciparum W2 (drug-resistant) proliferation in erythrocyte-based infection assay; type: functional, organism-based
[3] = tested on: Plasmodium falciparum; assay: NOVARTIS: Inhibition of Plasmodium falciparum 3D7 (drug-susceptible) proliferation in erythrocyte-based infection assay; type: functional, organism-based; settings: Plasmodium falciparum, 3D7
[4] = Plasmodium falciparum, W2, read-out: EC50

| SMILES | CC50 [1] [nM] | EC50 [2] | EC50 [3] [nM] | EC50 [2, 4] [nM] |
| --- | --- | --- | --- | --- |
| N=C(N)NN=Cc1cc(Cl)ccc1O | > 1860 | No fit | 12.8 | – |
| O=c1c(=Cc2ccc(Cl)cc2)sc2nc3ccccc3n12 | > 10000 | – | > 436 | 190 |
| O=C1c2ccccc2-c2nnc(-c3ccc(Br)cc3)cc21 | > 100000 | – | > 2500 | 1890 |
| CC1CCC2C(C)C(=O)OC3OC4(C)CCC1C32OO4 (configuration not stated) | > 100000 | – | 12 | 4.58 |
| Clc1ncnc2ncn(Cc3ccccc3)c12 | 58100 | – | 1650 | 1090 |
| CC(C=NNC(N)=S)=NNC(N)=S | > 100000 | – | 8.94 | 7.23 |
| COC(OC)C(C)=NNC(N)=S | > 100000 | – | 8.92 | 3.62 |
| CCOC(=O)C1=C(c2ccccc2)N=c2sc(=Cc3cc(OC)c(OC)c(OC)c3)c(=O)n2C1c1c(OC)ccc2ccccc12 (configuration not stated) | > 100000 | No fit | > 7820 | – |
| Cc1ccc(C(C(=O)NC2CCCCC2)N(C(=O)Cn2nnc3ccccc32)c2ccc(S(=O)(=O)NCC3CCCO3)cc2)o1 (configuration not stated) | > 100000 | – | > 12300 | 1910 |
| COc1ccc(C2CC(=O)C3=C(C2)NC(C)=C(C(=O)OC(C)C)C3c2ccc(Cl)cc2Cl)cc1OC (configuration not stated) | > 100000 | – | 6.3 | 3.91 |
| CCc1nc2nc(C)cc(Nc3ccc(I)cc3)n2n1 | > 100000 | – | 260 | < 3 |
| CCCCN(CCCC)C(=O)Cn1ccc(=N)c2ccccc21 | > 100000 | – | 3740 | < 0.151 |
| CCOC(=O)c1cnc2cc(OCC3CC3)c(OCC3CC3)cc2c1O | > 100000 | – | < 5.72 | < 0.0706 |
| COC(=O)c1sc2nc(CN3CCC(C)CC3)ccc2c1NC(=O)c1ccc(C)s1 | > 100000 | No fit | 9700 | – |
| CCOC(=O)c1cnc2c(OC)cccc2c1Nc1cccc(C(F)(F)F)c1 | 26000 | No fit | 926 | – |
| CCOC(=O)c1sc2nc(N)c(C#N)c(-c3cccs3)c2c1N | > 100000 | No fit | 1130 | – |
| Cc1cc(C)c(S(=O)(=O)N2CCC(NC(=O)c3ccccc3)CC2)c(C)c1 | > 100000 | No fit | 1070 | – |
| CCc1c(C#N)c(N)nc(SCC(=O)c2ccc(C)cc2)c1C#N | > 100000 | No fit | 1200 | – |
| COc1ccc(OC)c(-c2ccc(O)c(CN3CCC(c4ccccc4)CC3)c2)c1 | > 100000 | – | 508 | 9.12 |
| CCOC(=O)C1=C(C)NC2=C(C(=O)CC(c3ccc(OC)c(OC)c3)C2)C1c1ccccc1Cl (configuration not stated) | > 100000 | – | 5.05 | 8.74 |
| CCOC(=O)c1cc(-c2ccc(OC)cc2)n(CCC(=O)Nc2cccc(C(C)=O)c2)c1C | > 100000 | – | 21.8 | 8.49 |
| CCCCOc1ccc(N(C(C)=O)C2=C(N3CCCCC3)C(=O)c3ccccc3C2=O)cc1 | 54400 | – | 5.64 | 4.14 |
| COc1ccc(C2CC(=O)C3=C(C2)NC(C)=C(C(=O)OC2CCCC2)C3c2ccccc2Cl)cc1OC (configuration not stated) | > 100000 | – | 55.8 | 7.38 |
| O=C1N(Cc2cc3ccccc3s2)CC2CN(Cc3cccc4c3OCO4)CCN12 (configuration not stated) | > 10000 | – | 727 | < 0.572 |
| CCCOC(=O)C1=C(C)NC2=C(C(=O)CC(c3ccc(OC)c(OC)c3)C2)C1c1ccccc1F (configuration not stated) | > 100000 | – | 6.71 | 5.41 |
| CCOC(=O)C1=C(C)NC2=C(C(=O)CC(c3ccc(OC)c(OC)c3)C2)C1c1ccc(Br)cc1 (configuration not stated) | > 100000 | – | 18.2 | 4.81 |
| COc1ccc(C(OCC(=O)N2CCN(Cc3ccccc3)CC2)c2ccc(F)cc2)cn1 (configuration not stated) | > 10000 | – | 733 | 187 |

| SMILES | CC50 [1] [nM] | EC50 [2] | EC50 [3] [nM] | EC50 [2, 4] [nM] |
| --- | --- | --- | --- | --- |
| COc1cccc(CNCCCCCCCCCCCCNCc2cccc(OC)c2O)c1O | 53500 | – | 819 | 1010 |
| C=CC[n+]1cccc2c3ccccc3ccc21 | > 100000 | – | 1720 | 1900 |
| O=C1NC(=S)N/C1=C/c1cccc(Oc2ccccc2)c1 | > 10000 | – | 1880 | > 191 |
| O=C(Cc1ccsc1)NC1CCN(CC(O)CN(Cc2ccccc2)S(=O)(=O)c2ccccc2)C1 (configuration not stated) | > 10000 | – | 411 | 188 |
| COc1ccc2nc(C)cc(Nc3ccc(Br)cc3)c2c1 | 19700 | – | 201 | 369 |
| COc1ccc(-n2c(CNC(=O)c3cccc4ccccc34)n[nH]c2=S)cc1 | > 100000 | – | 1100 | 1890 |
| Cc1cc(Nc2cc(Cl)cc(Cl)c2)n2nc(C)nc2n1 | > 100000 | – | 1330 | 1870 |
| OC1=C2C(=Nc3ccccc3SC2c2cccs2)c2ccccc21 (configuration not stated) | 49500 | – | 42.8 | < 2.47 |
| CCOc1cc(C(=O)Nc2ccc(-c3nc4ccccc4[nH]3)cc2)cc(OCC)c1OCC | 40000 | – | 229 | 763 |
| COc1ccc(C2CC3=NC(C)=C(C(=O)OC(C)C)C(c4ccccc4Cl)C3=C(O)C2)cc1OC (configuration not stated) | > 100000 | – | 6.21 | 4.11 |
| O=C(CCl)NCCCCNc1ccnc2cc(Cl)ccc12 | > 10000 | No fit | > 811 | – |
| CCCC(=O)Oc1ccccc1-c1nc2cc(C)ccn2c1NC(C)(C)CC(C)(C)C | > 100000 | – | 3550 | 1890 |
| COc1ccc(-n2c(SCC(=O)Nc3cc(Cl)ccc3OC)nnc2-c2ccccc2)cc1 | > 11400 | – | > 1100 | < 1.06 |
| O=C(c1ccc([N+](=O)[O-])cc1)C1C(C(=O)c2ccc(F)cc2)C2(C(=O)Nc3ccccc32)C2C=Cc3ccccc3N12 (configuration not stated) | > 10000 | – | > 622 | 188 |
| CC[n+]1c(C)cc2c(sc3ccccc32)c1C | > 100000 | – | 1050 | 1870 |
| CCCOC(=O)C1=C(C)NC2=C(C(=O)CC(c3ccc(OC)c(OC)c3)C2)C1c1ccc(Cl)cc1Cl (configuration not stated) | > 100000 | – | 7.62 | 4.36 |
| CCCCCCc1cc2cc(-c3nc4ccccc4[nH]3)c(=Nc3ccccc3C)oc2cc1O | > 100000 | No fit | 2120 | – |
| CC(C)(C)c1cc(CCC(=O)Nc2c3c(nc4ccccc24)N(c2cccc(Cl)c2)CC3)cc(C(C)(C)C)c1O | > 100000 | No fit | 6650 | – |
| CN1C(=O)N(C)C(NNC(N)=S)C1NNC(N)=S (configuration not stated) | > 100000 | – | 8.92 | 6.21 |
| COc1cc(NC(C)CCCN(Cc2ccc(Cl)cc2)C(=O)Nc2ccccc2F)c2ncccc2c1 (configuration not stated) | > 8250 | – | > 1090 | < 0.572 |
| CC(c1nc2ccccc2c(=O)n1C)N1CCN(C(=O)C(C)(C)C)CC1 (configuration not stated) | > 10000 | – | 185 | 191 |
| CSc1nnc(NC(=O)C2CC2)s1 | > 100000 | – | > 12500 | 1910 |
| O=C(CSc1nc2ccccc2c(=O)n1CCCN1CCOCC1)Nc1cccc(S(=O)(=O)N2CCCCCC2)c1 | 62100 | – | 470 | 1180 |
| CCOC(=O)C(=O)N1c2ccc(OC)cc2-c2c(ssc2=S)C1(C)C | > 100000 | – | 2.43 | 3.19 |
| Cc1ccn(CC(=O)N2CCOc3c(cc(-c4csc5ccccc45)cc3OCCc3ccccn3)C2)n1 | 39000 | – | 823 | 730 |
| O=C(NN=Cc1ccc(O)cc1O)c1ccncc1 | > 100000 | – | 4750 | 1880 |
| Cc1nc2cc(-c3ccc(Br)cc3)nn2c(O)c1C | > 100000 | No fit | 2740 | – |
